Key:
[1] = Effect on appetite: food consumption in ICR mice; conditions: 3 mg/kg oral
[2] = system: COc1ccc2c(CC(=O)N[C@@H](Cc3ccc(O)cc3)C(=O)N[C@H](C(=O)N[C@@H](C)C(=O)N[C@@H](CC(=O)O)C(=O)N[C@@H](C)C(=O)N3CCC[C@H]3C(=O)N[C@@H](CCCCNc3ccc([N+](=O)[O-])cc3[N+](=O)[O-])C(=O)O)C(C)C)cc(=O)oc2c1; assay: purified protein, by the assay type; conditions: other: fluorogenic substrate of ACE-2, pH 6.5, 25° C.
Procedure: (§1) ACE-2 enzymatic activity was assayed in microtitre plates by the following procedure. The ACE-2 assay buffer used contained 50 mM MES (Boehringer-Mannheim), 300 mM NaCl (Sigma) and 0.01% Brij-35 (Pierce Chemical Co.) at pH 6.5.
(§2) Reactions were mixed and incubated at 25° C.

[3] = system: COc1ccc2c(CC(=O)N[C@@H](C)C(=O)N3CCC[C@H]3C(=O)N[C@@H](CCCCNc3ccc([N+](=O)[O-])cc3[N+](=O)[O-])C(=O)O)cc(=O)oc2c1; assay: purified protein, by the assay type; conditions: other: fluorogenic substrate of ACE-2, pH 6.5, 25° C.
Procedure: as §1, §2

Carboxypeptidase A = target: T1, Carboxypeptidase A (Bos taurus, UniProt P00730); assay: Carboxypeptidase A activity assay; type: biochemical; conditions: Ki class; compounds tested in 5% DMSO, 12 concentrations
T1 sequence (P00730 111-419): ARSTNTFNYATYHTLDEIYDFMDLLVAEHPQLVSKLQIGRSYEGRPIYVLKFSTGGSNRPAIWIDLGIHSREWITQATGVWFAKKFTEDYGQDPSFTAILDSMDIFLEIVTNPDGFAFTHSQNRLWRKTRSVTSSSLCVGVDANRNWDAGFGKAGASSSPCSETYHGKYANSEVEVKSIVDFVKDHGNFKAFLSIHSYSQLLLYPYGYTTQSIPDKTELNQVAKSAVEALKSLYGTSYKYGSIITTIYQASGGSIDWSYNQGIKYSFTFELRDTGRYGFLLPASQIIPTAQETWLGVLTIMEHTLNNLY
How it was run: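 Ki obtained by correcting apparent Ki for substrate, Ki=Kiapp/(1+[S]/Km), from 12-concentration series. Enzyme activity read by absorbance at 328 nm with 5% DMSO present, EDTA stop.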

ACE (Sigma, A2580) = target: T2, ACE (Sigma, A2580) (Sus scrofa, UniProt F1RRW5); assay: ACE enzymatic activity assay; type: biochemical, porcine; conditions: Ki class; compounds tested in 5% DMSO, 12 concentrations
T2 construct: ACE from porcine kidney; purchased Sigma A2580; host or cells: porcine kidney
T2 sequence (F1RRW5 34-1309): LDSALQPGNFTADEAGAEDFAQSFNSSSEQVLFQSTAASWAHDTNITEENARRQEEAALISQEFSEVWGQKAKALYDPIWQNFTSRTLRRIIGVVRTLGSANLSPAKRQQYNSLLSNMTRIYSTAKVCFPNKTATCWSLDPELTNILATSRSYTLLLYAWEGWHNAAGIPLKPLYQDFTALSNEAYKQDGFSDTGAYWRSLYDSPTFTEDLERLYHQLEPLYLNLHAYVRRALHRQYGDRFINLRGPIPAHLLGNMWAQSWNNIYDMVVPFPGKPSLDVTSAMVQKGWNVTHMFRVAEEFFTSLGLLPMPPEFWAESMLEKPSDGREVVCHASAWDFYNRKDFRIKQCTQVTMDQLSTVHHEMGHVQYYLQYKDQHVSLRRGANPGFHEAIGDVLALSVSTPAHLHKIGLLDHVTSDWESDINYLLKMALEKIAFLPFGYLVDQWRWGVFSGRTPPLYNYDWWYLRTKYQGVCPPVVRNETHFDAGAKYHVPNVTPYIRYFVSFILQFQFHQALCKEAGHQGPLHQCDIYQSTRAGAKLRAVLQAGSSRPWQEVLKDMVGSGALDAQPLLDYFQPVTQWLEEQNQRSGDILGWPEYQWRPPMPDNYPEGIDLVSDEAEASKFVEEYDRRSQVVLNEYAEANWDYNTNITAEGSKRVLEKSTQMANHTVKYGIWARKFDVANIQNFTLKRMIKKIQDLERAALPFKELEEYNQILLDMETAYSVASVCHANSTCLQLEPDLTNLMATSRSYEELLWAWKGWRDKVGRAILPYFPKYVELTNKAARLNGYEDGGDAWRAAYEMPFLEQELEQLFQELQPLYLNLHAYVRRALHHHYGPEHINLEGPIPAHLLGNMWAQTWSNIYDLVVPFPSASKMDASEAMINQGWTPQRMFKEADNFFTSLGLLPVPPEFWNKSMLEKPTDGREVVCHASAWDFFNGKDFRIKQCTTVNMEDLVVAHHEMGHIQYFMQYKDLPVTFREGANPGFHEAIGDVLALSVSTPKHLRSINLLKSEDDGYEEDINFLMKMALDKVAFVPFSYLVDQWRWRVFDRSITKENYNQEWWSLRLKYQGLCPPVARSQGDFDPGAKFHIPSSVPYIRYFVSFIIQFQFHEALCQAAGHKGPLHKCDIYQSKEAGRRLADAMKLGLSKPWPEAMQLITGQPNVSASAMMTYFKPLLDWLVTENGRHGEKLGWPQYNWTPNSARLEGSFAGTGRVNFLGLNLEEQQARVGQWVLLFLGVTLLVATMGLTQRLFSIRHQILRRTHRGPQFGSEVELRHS
How it was run: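 Fluorogenic substrate cleavage by 1 nM ACE, read at 320/405 nm after EDTA stop at ~30 min. Reactions at 25 °C, pH 7.5, in HEPES/NaCl/Brij-35 buffer; compounds tested at 12 concentrations in 5% DMSO.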

ACE-2 [4] = target: ACE-2 (Rattus norvegicus, UniProt Q5EGZ1); assay: ACE-2 Competitive Substrate Assay, rat ACE-2; type: biochemical; conditions: Ki class; compounds tested in 5% DMSO, 12 concentrations
Procedure: as §1, §2
The activity of the test compounds was investigated using the procedure outlined above. The compounds were tested in 5% DMSO. Enzyme activity was measured at 12 compound concentrations.

ACE-2 [5] = target: T3, ACE-2 (Homo sapiens, UniProt Q9BYF1); assay: ACE-2 Competitive Substrate Assay (ACS Assay); type: biochemical; conditions: Ki class; compounds tested in 5% DMSO, 12 concentrations; read-out: Human ACE-2 Activity
T3 construct: a stop codon inserted after the serine immediately preceding the transmembrane domain; made in house; host or cells: CHO K1 cells (transient transfection, purified from conditioned medium)
T3 sequence (Q9BYF1 18-740 limits assumed): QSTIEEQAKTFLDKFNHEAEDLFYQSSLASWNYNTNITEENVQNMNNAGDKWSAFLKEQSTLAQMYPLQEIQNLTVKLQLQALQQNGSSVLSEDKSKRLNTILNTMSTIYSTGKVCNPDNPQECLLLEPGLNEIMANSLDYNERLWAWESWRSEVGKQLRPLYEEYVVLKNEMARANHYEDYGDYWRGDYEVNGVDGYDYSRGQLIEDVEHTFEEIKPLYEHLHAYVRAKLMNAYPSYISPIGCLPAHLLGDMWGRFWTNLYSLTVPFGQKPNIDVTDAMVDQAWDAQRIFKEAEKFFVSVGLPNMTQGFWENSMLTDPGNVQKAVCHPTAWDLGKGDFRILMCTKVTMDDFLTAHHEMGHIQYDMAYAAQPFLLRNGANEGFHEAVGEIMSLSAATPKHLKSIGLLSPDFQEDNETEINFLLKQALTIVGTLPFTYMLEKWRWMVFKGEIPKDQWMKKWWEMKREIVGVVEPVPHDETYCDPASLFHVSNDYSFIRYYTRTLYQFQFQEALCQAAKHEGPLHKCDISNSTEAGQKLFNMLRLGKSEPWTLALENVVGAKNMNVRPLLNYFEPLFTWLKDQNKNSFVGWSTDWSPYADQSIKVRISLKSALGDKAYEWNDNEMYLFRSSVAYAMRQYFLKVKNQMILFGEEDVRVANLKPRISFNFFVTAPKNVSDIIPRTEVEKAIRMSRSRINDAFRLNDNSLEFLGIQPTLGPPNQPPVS

Chain of ACE-2 (Rattus norvegicus, UniProt Q5EGZ1) (Q5EGZ1 18-805): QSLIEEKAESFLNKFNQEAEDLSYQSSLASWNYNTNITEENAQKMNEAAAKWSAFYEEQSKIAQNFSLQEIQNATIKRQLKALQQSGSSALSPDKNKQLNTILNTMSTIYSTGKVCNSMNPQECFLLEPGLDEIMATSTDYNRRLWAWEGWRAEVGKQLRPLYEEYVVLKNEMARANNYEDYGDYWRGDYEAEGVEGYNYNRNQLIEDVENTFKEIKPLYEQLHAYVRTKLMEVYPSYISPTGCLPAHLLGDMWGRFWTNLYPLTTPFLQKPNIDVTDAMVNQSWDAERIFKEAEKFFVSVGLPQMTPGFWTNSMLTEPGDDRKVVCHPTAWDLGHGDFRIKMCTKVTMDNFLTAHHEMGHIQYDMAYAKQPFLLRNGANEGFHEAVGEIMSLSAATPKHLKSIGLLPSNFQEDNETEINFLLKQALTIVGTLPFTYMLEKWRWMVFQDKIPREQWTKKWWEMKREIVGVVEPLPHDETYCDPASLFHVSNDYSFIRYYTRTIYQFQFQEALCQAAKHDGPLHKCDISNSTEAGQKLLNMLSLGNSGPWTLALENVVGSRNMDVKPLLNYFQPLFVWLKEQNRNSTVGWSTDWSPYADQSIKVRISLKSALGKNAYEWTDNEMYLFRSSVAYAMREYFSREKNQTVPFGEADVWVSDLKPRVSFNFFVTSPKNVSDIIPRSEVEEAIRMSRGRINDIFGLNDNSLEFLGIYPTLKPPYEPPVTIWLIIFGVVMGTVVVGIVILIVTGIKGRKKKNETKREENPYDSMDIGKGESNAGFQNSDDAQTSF

Compound | cumulative food consumption ([1]; one hour) | cumulative food consumption ([1]; six hours) | Km [2] [µM] | kcat/Km [2] [M⁻¹ s⁻¹] | Km [3] [µM] | kcat/Km [3] [M⁻¹ s⁻¹] | Ki (Carboxypeptidase A) [nM] | Ki (ACE (Sigma, A2580)) [nM] | Ki (ACE-2 [4]) [nM] | Ki (ACE-2 [5]) [nM]
CC(N)Cc1ccccc1 (centres unmarked) [amphetamine, reference compound] | about 0.18±0.05 g | about 3.10±0.03 g | – | – | – | – | – | – | – | –
ACE-2 (Homo sapiens) | – | – | 130 | 42000 | 340 | 230000 | – | – | – | –
O=C(O)[C@H](CCc1ccccc1)N[C@@H](CC1CC1)C(=O)O [CL, 2-(1-Carboxy-2-cyclopropyl-ethylamino)-4-phenyl-butync acid] | – | – | – | – | – | – | > 50000 | > 50000 | 100 to 500 | > 500
CC(C)CC(N[C@@H](Cc1cncn1COCc1ccccc1)C(=O)O)C(=O)O (single isomer, unassigned) [EN, 2-[2-(3-Benzyloxymethyl-3H-imidazol-4-yl)-1-carboxy-ethylamino]-4-methyl-pentanoic acid] | – | – | – | – | – | – | > 50000 | > 50000 | 100 to 500 | 100 to 500
CC(C)CC(N[C@@H](Cc1cncn1Cc1cccc([N+](=O)[O-])c1)C(=O)O)C(=O)O (single isomer, unassigned) [GB, 2-[1-Carboxy-2-[3-(3-nitro-benzyl)-3H-imidazol-4-yl]-ethylamino]-4-methyl-pentanoic acid] | – | – | – | – | – | – | > 50000 | > 50000 | 100 to 500 | > 500
CC(C)CC(NC(Cc1ccccn1)C(=O)O)C(=O)O (centres unmarked) [BF, 2-(1-Carboxy-2-pyridin-2-yl-ethylamino)-4-methyl-pentanoic acid] | – | – | – | – | – | – | > 50000 | > 50000 | 100 to 500 | > 500
CC(C)[C@H](NC(CCc1ccccc1)C(=O)O)C(=O)O (some centres unmarked) [AS, 2-(1-Carboxy-3-phenyl-propylamino)-3-methyl-butync acid] | – | – | – | – | – | – | > 50000 | > 50000 | > 500 | > 500

From US7045532B2 (Millennium Pharmaceuticals, Inc., priority 1999, dated 2006)
